From patent US9695155B2, “Herbicidal substituted pyrimidinyloxy benzene compounds” (E. I. DU PONT DE NEMOURS AND COMPANY, priority 2013, dated 2017)

What was measured:
Italian ryegrass = experiment: Test D preemergence; type: in vivo, Lolium multiflorum
In short: (§1)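 Visual rating vs untreated controls, 0 = no effect, 100 = complete control, taken 7–21 d after treatment. Pre: silt loam soil. Post: potting medium, plants 2–18 cm, 1–4 leaf. Formulation: non-phytotoxic solvent mix + surfactant.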

chamomile = experiment: Test D preemergence; type: in vivo, Matricaria inodora; conditions: scale 0-100
In short: as §1

spring barley = experiment: Test D preemergence; type: in vivo, Hordeum vulgare
In short: as §1

blackgrass = experiment: Test D postemergence; type: in vivo, Alopecurus myosuroides
In short: as §1

windgrass = experiment: Test D preemergence; type: in vivo, Apera spica-venti
In short: as §1

wild oat = experiment: Test D postemergence; type: in vivo, Avena fatua
In short: as §1

lambsquarters = experiment: Test D preemergence; type: in vivo, Chenopodium album
Excerpt: (§2) Seeds of plant species selected from bluegrass (annual bluegrass, Poa annua), blackgrass (Alopecurus myosuroides), canarygrass (littleseed canarygrass, Phalaris minor), chickweed (common chickweed, Stellaria media), galium (catchweed bedstraw, Galium aparine), bromegrass, downy (downy bromegrass, Bromus tectorum), field poppy (Papaver rhoeas), field violet (Viola arvensis), green foxtail (Setaria viridis), deadnettle (henbit deadnettle, Lamium amplexicaule), Italian ryegrass (Lolium multiflorum), kochia (Kochia scoparia), lambsquarters (Chenopodium album), oilseed rape (Brassica napus), pigweed (Amaranthus retroflexus), chamomile (scentless chamomile, Matricaria inodora), Russian thistle (Salsola kali), speedwell (bird's-eye speedwell, Veronica persica), spring barley (Hordeum vulgare), spring wheat (Triticum aestivum), wild buckwheat (Polygonum convolvulus), wild mustard (Sinapis arvensis), wild oat (Avena fatua), wild radish (Raphanus raphanistrum), windgrass (Apera spica-venti), winter barley (Hordeum vulgare), and winter wheat (Triticum aestivum) were planted into a silt loam soil and treated preemergence with test chemicals formulated in a non-phytotoxic solvent mixture which included a surfactant.
(§3) At the same time, these species were planted in pots containing Redi-Earth® planting medium (Scotts Company, 14111 Scottslawn Road, Marysville, Ohio 43041) comprising spaghnum peat moss, vermiculite, wetting agent and starter nutrients and treated with postemergence applications of the test chemicals formulated in the same manner. Plants ranged in height from 2 to 18 cm (1- to 4-leaf stage). Treated plants and controls were maintained in a controlled growth environment for 7 to 21 days after which time all species were compared to controls and visually evaluated. Plant response ratings, summarized in Table D, are based on a scale of 0 to 100 where 0 is no effect and 100 is complete control. A dash (-) response means no test result.

pigweed = experiment: Test D preemergence; type: in vivo, Amaranthus retroflexus
Excerpt: as §2, §3

field poppy = experiment: Test D preemergence; type: in vivo, Papaver rhoeas
In short: as §1

bromegrass, downy = experiment: Test D preemergence; type: in vivo, Bromus tectorum
Excerpt: as §2, §3

[1] = 16 g ai/ha, scale 0 (no effect) to 100 (complete control)
[2] = 31 g ai/ha, scale 0 (no effect) to 100 (complete control)

SMILES: Clc1cnc(Oc2ccccc2-n2cc(Cl)cn2)nc1 [Compound 3]
- Plant response rating, Ryegrass, Italian (Italian ryegrass; [1]): 0
- Plant response rating, Ryegrass, Italian (Italian ryegrass; [2]): 0
- Plant response rating, Ryegrass, Italian (Italian ryegrass; 62 g ai/ha, scale 0-100): 0
- Plant response rating, Ryegrass, Italian (Italian ryegrass; 125 g ai/ha, scale 0-100): 0
- Plant response rating, Ryegrass, Italian (Italian ryegrass; 250 g ai/ha, scale 0-100): 0
- Plant response rating, Chamomile (chamomile; 31 g ai/ha): 0
- Plant response rating, Chamomile (chamomile; 62 g ai/ha): 0
- Plant response rating, Chamomile (chamomile; 125 g ai/ha): 20
- Plant response rating, Chamomile (chamomile; 250 g ai/ha): 40
- Plant response rating, Barley, Spring (spring barley; [1]): 0
- Plant response rating, Barley, Spring (spring barley; 31 g ai/ha, scale 0-100): 0
- Plant response rating, Barley, Spring (spring barley; 62 g ai/ha, scale 0-100): 0
- Plant response rating, Barley, Spring (spring barley; 125 g ai/ha, scale 0-100): 0
- Plant response rating, Barley, Spring (spring barley; 250 g ai/ha, scale 0-100): 0
- Plant response rating, Blackgrass (blackgrass; Postemergence, 62 g ai/ha, scale 0 to 100 (0 no effect, 100 complete control)): 0
- Plant response rating, Blackgrass (blackgrass; Postemergence, 31 g ai/ha, scale 0 to 100 (0 no effect, 100 complete control)): 0
- Plant response rating, Blackgrass (blackgrass; Postemergence, 125 g ai/ha, scale 0 to 100 (0 no effect, 100 complete control)): 0
- Plant response rating, Blackgrass (blackgrass; Postemergence, 250 g ai/ha, scale 0 to 100 (0 no effect, 100 complete control)): 10
- Plant response rating, Blackgrass (blackgrass; postemergence, 16 g ai/ha, scale 0 to 100, 0 no effect, 100 complete control): 70
- Plant response rating, Windgrass (windgrass; [1]): 0
- Plant response rating, Windgrass (windgrass; [2]): 0
- Plant response rating, Windgrass (windgrass; 62 g ai/ha, scale 0-100): 0
- Plant response rating, Windgrass (windgrass; 125 g ai/ha, scale 0-100): 10
- Plant response rating, Windgrass (windgrass; 250 g ai/ha, scale 0-100): 20
- Plant response rating, Oat, Wild (wild oat; 16 g ai/ha, scale 0-100): 70
- Plant response rating, Oat, Wild (wild oat; 31 g ai/ha, scale 0 to 100 (0 no effect, 100 complete control)): 0
- Plant response rating, Oat, Wild (wild oat; 62 g ai/ha, scale 0 to 100 (0 no effect, 100 complete control)): 0
- Plant response rating, Oat, Wild (wild oat; 125 g ai/ha, scale 0 to 100 (0 no effect, 100 complete control)): 0
- Plant response rating, Oat, Wild (wild oat; 250 g ai/ha, scale 0 to 100 (0 no effect, 100 complete control)): 0
- Plant response rating, Lambsquarters (lambsquarters; [1]): 0
- Plant response rating, Lambsquarters (lambsquarters; 31 g ai/ha, scale 0-100): 0
- Plant response rating, Lambsquarters (lambsquarters; 62 g ai/ha, scale 0-100): 0
- Plant response rating, Lambsquarters (lambsquarters; 125 g ai/ha, scale 0-100): 25
- Plant response rating, Lambsquarters (lambsquarters; 250 g ai/ha, scale 0-100): 50
- Plant response rating, Pigweed (pigweed; [1]): 0
- Plant response rating, Pigweed (pigweed; [2]): 0
- Plant response rating, Pigweed (pigweed; 62 g ai/ha, scale 0-100): 40
- Plant response rating, Pigweed (pigweed; 125 g ai/ha, scale 0-100): 80
- Plant response rating, Pigweed (pigweed; 250 g ai/ha, scale 0-100): 100
- Plant response rating, Field Poppy (field poppy; [1]): 40
- Plant response rating, Field Poppy (field poppy; 62 g ai/ha, scale 0-100): 40
- Plant response rating, Field Poppy (field poppy; 125 g ai/ha, scale 0-100): 70
- Plant response rating, Field Poppy (field poppy; 250 g ai/ha, scale 0-100): 80
- Plant response rating, Bromegrass, Downy (bromegrass, downy; [1]): 0
- Plant response rating, Bromegrass, Downy (bromegrass, downy; 31 g ai/ha, scale 0-100): 0
- Plant response rating, Bromegrass, Downy (bromegrass, downy; 62 g ai/ha, scale 0-100): 0
- Plant response rating, Bromegrass, Downy (bromegrass, downy; 125 g ai/ha, scale 0-100): 0
- Plant response rating, Bromegrass, Downy (bromegrass, downy; 250 g ai/ha, scale 0-100): 0
